In the Deep4Chem optical property database one finds emission maximum data, which are given here for 53 compounds.

This series in a line: solvent given as SMILES.

Regarding `c1ccc(-n2c(-c3ccc([Si](c4ccc(-c5nc6ccccc6n5-c5ccccc5)cc4)(c4ccc(-c5nc6ccccc6n5-c5ccccc5)cc4)c4ccc(-c5nc6ccccc6n5-c5ccccc5)cc4)cc3)nc3ccccc32)cc1`, the emission maximum (in ClCCl) came to 363 nm.
In turn, `Oc1cc2ccc3cc(O)cc4ccc(c1)c2c34` returned an emission maximum (in CO) of 405 nm.
In turn, `CC(=O)c1c(N[C@@H](Cc2ccc(O)cc2)C(=O)O)c2ccc(N(C)C)cc2oc1=O` gave an emission maximum (in ClCCl) of 415 nm.
On to `F[B-]1(F)n2c(Nc3cccc4cccnc34)ccc2C(c2ccccc2)=C2C=CC(Cl)=[N+]21`, for which the emission maximum reads like this: (in C1CCCCC1) 580 nm; (in CC#N) 580 nm; (in Cc1ccccc1) 586 nm; (in ClC(Cl)Cl) 583 nm.
The compound `Oc1ccc(Br)cc1-c1nc2c(c3c1-c1ccccc1CC3)-c1ccccc1CC2` yielded an emission maximum (in ClCCl) of 421 nm.
Compound `CC(C)c1cc(C(C)C)c(B2c3ccccc3Oc3cc(N4c5ccccc5C5(c6ccccc6-c6ccccc65)c5ccccc54)ccc32)c(C(C)C)c1` yielded an emission maximum (in Cc1ccccc1) of 456 nm.
In turn, `CC(C)(C)c1ccc2oc3nc4oc5ccc(-n6c7ccccc7c7cc(-n8c9ccccc9c9ccccc98)ccc76)cc5c4cc3c2c1` came in with an emission maximum (in ClC(Cl)Cl) of 446 nm.
As to `CC(C)c1ccc(-c2nc(-c3ccccc3)c3ccccn23)cc1`, the emission maximum (in CC#N) was determined as 478 nm.
For `CCCCn1c2ccc3ccc4ccccc4c3c2c2c3c(ccc4ccccc43)ccc21`, the emission maximum (in ClCCl) came to 430 nm.
Regarding `O=C1c2ccccc2-c2c(-c3cc(Cl)ccc3O)[nH]c(=O)n21`, the emission maximum by setting is: (in CC#N) 475 nm; (in CO) 493 nm; (in ClCCl) 475 nm.
For the compound `N#Cc1ccc(/C=C2\N=C(c3ccccc3)OC2=O)cc1`, the emission maximum (in C1COCCO1) was found to be 426 nm.
As to `c1cncc(-c2ccc(-c3c4ccc(-c5cccnc5)cc4c(-c4ccc(-c5cccnc5)cc4)c4ccc(-c5cccnc5)cc34)cc2)c1`, the emission maximum (in ClCCl) is given as 443 nm.
With `N#Cc1nn(-c2ccccc2C(F)(F)F)nc1N1CCCC1`, the emission maximum (in CC#N) is recorded as 433 nm.
For `O=C(c1ccc2c3c(cccc13)-c1cccc3c1C2CC=C3)c1c(Cc2ccccc2)c2ccc3cccc4c5cccc6ccc1c(c65)c2c34` (centres undefined), where the note is “in ClCCl”, the emission maximum turned out to be 528 nm.
On to `CCC1=C(C)C2=Cc3c4ccccc4c4n3[B-](c3ccncc3)(Oc3ccccc3-4)[N+]2=C1C=Cc1ccc(OC)cc1` (centres undefined), for which the emission maximum by setting is: (in CC#N) 712 nm; (in CCCCCC) 711 nm; (in Cc1ccccc1) 720 nm; (in ClCCl) 717 nm.
Regarding `COc1cccc2cc(-c3cc4cccc(OC)c4oc3=O)oc12`, the emission maximum came to 488 nm (in CC#N); 460 nm (in CCOC(C)=O); 488 nm (in CS(C)=O); 448 nm (in Cc1ccccc1); 504 nm (in O).
Compound `N#Cc1ccc(/C=C/c2ccc(C=C(c3ccccc3)c3ccccc3)cc2)cc1` registered an emission maximum (in C1CCOC1) of 456 nm.
On to `N#Cc1cc(/C=C/c2ccc(/C=C/c3ccc(N(c4ccccc4)c4ccccc4)cc3)c(C#N)c2)ccc1/C=C/c1ccc(N(c2ccccc2)c2ccccc2)cc1`, for which the emission maximum (in ClCCl) is on record as 577 nm.
For the compound `C[Si](C)(C)c1cccc2ccccc12`, the emission maximum (in C1CCCCC1) was found to be 328 nm.
In the case of `Nc1nc2ccccc2[n+]([O-])n1`, the emission maximum runs as follows: (in CC#N) 478 nm; (in O) 521 nm.
`Cc1ccc(C2=C3C=C(I)C=[N+]3[B-](F)(F)n3cc(I)cc32)cc1` returned an emission maximum (in C1CCCCC1) of 567.5 nm; an emission maximum (in CC#N) of 573 nm; an emission maximum (in CCO) of 573 nm; an emission maximum (in CCOC(C)=O) of 569.5 nm; an emission maximum (in CO) of 572 nm; an emission maximum (in OCC(F)(F)F) of 567.5 nm.
Regarding `Cc1cc(N2c3ccccc3[Si](c3ccccc3)(c3ccccc3)c3ccccc32)c(C)cc1-c1nc(-c2ccccc2)nc(-c2ccccc2)n1`, the emission maximum came out at 465 nm (in Cc1ccccc1) and 465 nm (in O=P(c1ccccc1)(c1ccccc1)c1ccccc1Oc1ccccc1P(=O)(c1ccccc1)c1ccccc1).
On to `O=C1C=CC2=Cc3ccccc3B(O)N12`, for which the emission maximum reads like this: (in CC#N) 412 nm; (in CO) 416 nm; (in CS(C)=O) 430 nm; (in ClC(Cl)Cl) 420 nm.
For the compound `c1ccc(N2N=C(c3c4ccccc4cc4ccccc34)CC2c2ccc3ccc4cccc5ccc2c3c45)cc1` (centres undefined), the emission maximum (in ClCCl) is recorded as 509 nm.
As to `Cc1cc(=O)oc2ccc3ccc(O)cc3c12`, the emission maximum worked out at 429 nm (in CC#N) and 450 nm (in CCO).
For `CCOC(=O)COc1ccc(/C=C/C2=C3C(C)=CC(/C=C/c4ccc(OCC(=O)OCC)cc4)=[N+]3[B-](F)(F)n3c2c2ccccc2c3-c2[nH]c(C)cc2C)cc1`, the emission maximum (in ClCCl) was found to be 733 nm.
Take `COc1cc(Br)cc2cc(-c3cc4cc(Br)cc(OC)c4oc3=O)oc12`: the emission maximum is, setting by setting: (in CC#N) 381 nm; (in CCOC(C)=O) 434 nm; (in CS(C)=O) 387 nm; (in Cc1ccccc1) 430 nm; (in O) 497 nm.
As to `COc1ccc(C2=C(c3ccc(OC)cc3)C(C)(C)c3cc(OC)ccc32)cc1`, under “in C1CCCCC1”, the emission maximum amounted to 398 nm.
In turn, `c1ccc(C2CSC(c3c4ccc(=[N+]5CCCCC5)cc-4oc4cc(N5CCCCC5)ccc34)SC2)cc1` (centres undefined) returned an emission maximum (in CO) of 606.35 nm.
In turn, `CC[n+]1nc2ccc(N(C)C)cc2c2cc(C)ccc21` registered an emission maximum (in O) of 542 nm.
As to `CCOc1ccc2c(-c3nc(-c4ccccc4)no3)cc(=O)oc2c1`, the emission maximum by setting is: (in CCO) 468 nm; (in ClC(Cl)Cl) 454 nm.
In turn, `N#Cc1cc2ccc(cc2)c2cccc3cccc(c4ccc(cc4)cc(C#N)c4ccc(cc4)c4cccc5cccc(c6ccc1cc6)c54)c32` registered an emission maximum (in Cc1ccccc1) of 496 nm.
For `CC(C)(C(=O)c1ccc(N2c3ccccc3C(C)(C)c3ccccc32)cc1)C(=O)c1ccc(N2c3ccccc3C(C)(C)c3ccccc32)cc1`, the emission maximum reads like this: (in Cc1ccccc1) 506 nm; (in c1ccc2c(c1)c1ccccc1n2-c1ccc(-c2ccc(-n3c4ccccc4c4ccccc43)cc2)cc1) 495.97 nm.
As for `CC(C)(C)c1ccc2c(c1)c1cc(C(C)(C)C)ccc1n2-c1ccc(-n2c3ccc(C(C)(C)C)cc3c3cc(C(C)(C)C)ccc32)c(-c2nccnc2C#N)c1`, the emission maximum runs as follows: (in Cc1ccccc1) 503 nm; (in c1cc(-n2c3ccccc3c3ccccc32)cc(-n2c3ccccc3c3ccccc32)c1) 493 nm.
Where the note is “in ClC(Cl)Cl”, `CC(C)(C)c1ccc2oc3nc4oc5ccc(-n6c7ccccc7c7ccccc76)cc5c4cc3c2c1` came in with an emission maximum of 446 nm.
On the same count and under the same terms, with `CCCCN1c2ccccc2Sc2cc(/C=C\c3cc(=O)oc4ccc(C)cc34)ccc21` the figure was 635 nm.
Take `CC(C)(C)c1ccc(C(C)(C)C)c(N2C(=O)c3cccc4c(-c5ccc(-c6ccccc6)s5)ccc(c34)C2=O)c1`: the emission maximum by setting is: (in CO) 572 nm; (in CS(C)=O) 557 nm; (in Cc1ccccc1) 493 nm.
For the compound `CC1(C)C(/C=C/C2=C(c3ccc(C(=O)O)cc3)C(=C/C=C3/N(CCCS(=O)(=O)[O-])c4ccc5ccccc5c4C3(C)C)/CCC2)=[N+](CCCS(=O)(=O)[O-])c2ccc3ccccc3c21`, under “in CO”, the emission maximum was found to be 811 nm.
`c1ccc2[nH]c(-c3ccc(-c4ccc(-c5ccc(-c6nc7ccccc7[nH]6)cc5)cc4)cc3)nc2c1` yielded an emission maximum (in CN(C)C=O) of 409 nm.
Turning to `C/C(=C\c1ccccc1)c1nc2ccccc2o1`, the emission maximum is given as 370 nm (in C1CCCCC1) and 380 nm (in CO).
In the case of `Clc1nc(Cl)nc(Nc2ccc3c4cccc5cccc(c6cccc2c63)c54)n1`, the emission maximum runs as follows: (in C1COCCO1) 472 nm; (in CC#N) 475 nm; (in CCCCOCCCC) 475 nm; (in CCOC(C)=O) 469 nm.
As for `COc1ccc(C#Cc2cc3ccccc3oc2=O)cc1`, the emission maximum (in CC#N) is 456 nm.
`CCN(CC)c1ccc2c(c1)oc(=O)c1c(=O)oc3c(C)c4oc(=O)c5c(=O)oc6cc(N(CC)CC)ccc6c5c4cc3c12` displayed an emission maximum (in CS(C)=O) of 558 nm and an emission maximum (in ClCCl) of 542 nm.
Consider `O=C1CC(=O)Nc2cc(Cl)ccc2N1`, for which, under “in CS(C)=O”, the emission maximum turned out to be 336 nm.
In turn, `COC(=O)c1nc2c(OCc3ccccc3)nc(N)nc2n1Cc1ccccc1` had an emission maximum (in C1COCCO1) of 376 nm, an emission maximum (in CC#N) of 382 nm, an emission maximum (in CO) of 405 nm and an emission maximum (in ClCCl) of 371 nm.
Compound `Nc1nc(/C=C/c2ccc(N(c3ccccc3)c3ccccc3)cc2)cc(/C=C/c2ccc(N(c3ccccc3)c3ccccc3)cc2)n1` showed an emission maximum (in Cc1ccccc1) of 467 nm and an emission maximum (in ClC(Cl)Cl) of 526 nm.
As for `c1ccc(-c2cc(-c3ccc4ccc5cccc6ccc3c4c56)ccn2)nc1`, the emission maximum is, setting by setting: (in C1CCOC1) 394 nm; (in CC#N) 410 nm; (in CCC#N) 408 nm; (in CCCC#N) 408 nm; (in CCCCCC) 385 nm; (in CCCO) 429 nm. For the same compound, the emission maximum runs as follows: (in CCO) 431 nm; (in CO) 438 nm; (in Cc1ccccc1) 393 nm.
Consider `CN(C)CCCN1c2ccccc2CCc2ccccc21`, for which the emission maximum by setting is: (in CC#N) 348 nm; (in CO) 353 nm; (in O) 400 nm.
Where the note is “in CO”, `N[C@@H](Cn1nnc2cc(-c3ccc4ccccc4c3)ccc21)C(=O)O` came in with an emission maximum of 417 nm.
Compound `CCOC(=O)c1c2c3c(ccc(OC)c3c3cc4ccccc4cc13)N(C)C2=O` displayed an emission maximum (in CC#N) of 413 nm.
`CC(C)(C)OC(=O)c1c(C=Cc2ccccc2)oc(NC2CCCCC2)c1C(=O)OC(C)(C)C`: the emission maximum (in CC#N) amounted to 462 nm.
The compound `CCOC(=O)c1cc(C(=O)OCC)c2cc(N(CC)CC)ccc2n1` registered an emission maximum (in CCO) of 561 nm.
`COc1cn2cc(-c3ccc(C#N)cc3)[n-][n+]2c1` gave an emission maximum (in ClCCl) of 505 nm.
